Earlier results on 2 molecules are cited in patent US20060136139A1, “Rapid computational identification of targets” (priority 2004, published 2006).

In one series the test system is PP2B. The conditions noted are these: experimental value beside the computed energy.
Another series deals with PP2C. As to conditions: experimental value beside the computed energy.
The test system of the next series is PP1. As to conditions: experimental value beside the computed energy.
The subject of a further series is PP2A. As to conditions: experimental value beside the computed energy.
For series [1] the following is noted: at concentrations used in experimental inhibition studies.

Where only a bound is given, the exact number is not on record here.

By IC50 is commonly meant the midpoint of a concentration-inhibition curve. On to `C=C1[C@@H](O)[C@@H]2O[C@]3(CC[C@H](/C=C/[C@@H](C)[C@@H]4CC(C)=C[C@@]5(O[C@H](C[C@@](C)(O)C(=O)O)CC[C@H]5O)O4)O3)CC[C@H]2O[C@@H]1[C@@H](O)C[C@H](C)[C@H]1O[C@@]2(CCCCO2)CC[C@H]1C` [okadaic acid], for which the IC50 is 5000 nM in the series on PP2B, above 10000 nM in the series on PP2C, 42 nM with PP1 and 0.51 nM in the series with PP2A.
Regarding `O=c1c(O)c(-c2ccc(O)c(O)c2)oc2cc(O)cc(O)c12` [quercetin], the “aggregation of kinase inhibitor” value in series [1] is given as “exhibit this behavior”.
